# From patent US20040081675A1, “Cosmetic formulations containing flavonoid derivatives” (priority 2001, published 2004)
# Tests used:
# [1] = UV absorption properties (absorption maximum, shoulder, absorption coefficient); format: physicochemical
# Text: Tiliroside absorbs in the UV-B region, i.e. in the wavelength range between 290 and 320 nm, with an absorption maximum at λmax=316 nm, and additionally in the UV-A region, i.e. in the wavelength range between 320 and 400 nm, with an absorption shoulder at λsh=349 nm. The absorption coefficient ε at λmax=316 nm is ε=23260 and at λsh=349 nm is ε=13500.
# The absorption coefficient at this wavelength is 23420.
# [2] = Inherent colour of the substance; format: physicochemical
# Text: The weak inherent colour is, for example, a major advantage if an inherent colour of the ingredients is undesired in the products for aesthetic reasons.
# [3] = format: physicochemical
# Text: The invention furthermore relates to the stabilisation of UV filters. A known and effective class of light-protection filter substances is formed by the dibenzoylmethane derivatives. However, it is disadvantageous that these substances are decomposed very easily by UV light and their protective properties are thus lost. An example of a commercially available light-protection filter from this class of compounds which may be mentioned is 4-(tert-butyl)-4′-methoxydibenzoylmethane, which has the structure shown below. [drawing 22]
# Tiliroside can be used for stabilisation here as the pure substance or in the form of a plant extract. In a preferred embodiment, tiliroside is used in the form of a plant extract, a purified plant extract or in the form of the pure substance prepared from the plant extract.
structure (smiles),measurement,setting,value
"O=C(C=Cc1ccc(O)cc1)OC[C@H]1O[C@@H](Oc2c(-c3ccc(O)cc3)oc3cc(O)cc(O)c3c2=O)[C@H](O)[C@@H](O)[C@@H]1O [Tiliroside, kaempferol 3-(6″-p-coumarylglucoside)]",absorption shoulder λsh,[1]; UV-A region (320 to 400 nm),349 nm
same,absorption in the UV-A region (in words),"[1]; UV-A region, tiliroside compared with Eusolex 6300",significantly better absorption properties in the UVA region
same,absorption maximum λmax,[1]; UV-B region,316 nm
same,absorption coefficient ε at λmax,"[1]; at the absorption maximum in the UV-B region (tiliroside 316 nm, Eusolex 6300 300 nm)",23260
same,absorption coefficient ε at λsh,"[1]; at the shoulder λsh=349 nm, UV-A region",13500
same,inherent colour,[2],only a weak inherent colour
same,stabilising action for dibenzoylmethanes,[3],particularly high stabilising action
